From US6730787B1, “2,4Dioxo-5-arylidenimino-1,3-pyrimidines” (priority 2001, dated 2004)
≈ marks a conversion by molar mass, not a printed value. Read-outs that look alike come from different tables or passages of the source.

What was measured:
[1] = test system: Mycobaciterium tuberculosis H37RV; test: Antimicrobial effect, serial dilution method (MIC); assay type: cell-based, Mycobacterium tuberculosis; conditions: 72-hour cultivation at 37° C.
[2] = test system: Herpes Simplex virus of the type I (HSV-I/Leningrad/248/88); test: Effect on Herpes Simplex virus: cytopathogenic effect in Vero cells; assay type: cell-based; conditions: for Quantity of the unchanged cells: number of cells in 100 visual fields
no-breed white mice = assay type: in vivo; conditions: observed 72 hours, 300 was the maximally utilized concentration
Description: Tested substance was introduced orally (in dose of 300 mg/kg) through a gastric tube or intraperitoneally (in dose of 100 mg/kg) to no-breed white mice with mass 18-20 g (each tested group consisted of 3 males and 3 females). Then the mouse state was observed during 72 hours. Absence of symptoms characteristic of toxic effects, or absence of animal death during the given time allows to make a conclusion that the toxicity of the tested substance is low. If acute toxicity effects are observed, the dose is reduced to find maximal tolerable dose.

mice [3] = test: Analgesic activity (tail withdrawal from radiant heat); assay type: in vivo
Description: The time needed to draw back a tail placed under a directed source of radiant heat was estimated in a group of 3 mice. Prolongation of the response time by more than 50% after intraperitoneal dosing the substance (30 mg/kg) indicated analgesic activity. Analginum (2 mg/kg) was utilized as a reference agent.

C.trachomatis D323 = test: Effect on Chlamydia trachomatis in cell culture; assay type: cell-based; conditions: for percentage of cell protection from infection / Number of unchanged cells: 100 mg/l, 48 hours; for Number of unchanged cells: counted in 100 visual fields; for activity against chlamydia (in words): compared with Ciprofloxacin / compounds of Table 5
Description: The […] activity of the claimed compounds was studied in respect to C.trachomatis […], which is a standard strain contained in the collection of the department of microbiology of St. Petersburg State Pavlov Medical University. […] Cells were grown in flasks made of neutral glass in the medium RPMI-1640 containing 10% of fetal calf serum. The test was performed in flat-bottom flasks made of glass (non-toxic), that were supplied with cover glasses. The cells were introduced into the medium in the final concentration of 1×10^6 cell/ml. […] Simultaneously, tested compounds in a final concentration of 100 mg/l were added to the cells. The sample was centrifuged at 2400 G for 60 minutes at a room temperature and incubated at 37° C. for 2 hours. […] The samples were doubled using the medium without cycloheximide so as to exclude its effect on the investigated compounds. The samples were incubated for 48 hours in CO2-incubator. […] The effect of the compound was determined by analysis of the monolayer state and number of cells with CPI when compared with the control (cell culture infected with C.trachomatis […]); in doing so, the number of unchanged cells, that were counted in 100 visual fields obtained using the eyepiece-micrometer, was taken into consideration.

[4] = test system: primary culture of human lymphocytes; test: Interferon-inducing activity in primary culture of human lymphocytes (IFN-α immunoenzyme test); assay type: cell-based
Description: To obtain lymphocyte culture, fresh blood (within 12 hours after sampling) from healthy donors (not of group II) was used. To separate lymphocytes, heparinized blood obtained from healthy donor was centrifuged in a density gradient ficoll-verografin of […] in order to extract a fraction of immunocompetent cells. This fraction was selected and diluted with the nutrient medium RPMI-1640, containing 5% of fetal calf serum, 0.3 mg/ml of L-glutamin, 100 un/ml of penicillin, and 50 μg/ml of streptomycin. The concentration of lymphocytes was considered after dying them with methylene blue and calculation of cell number in a chamber of a hemocytometer. Initial solutions of the claimed compounds were diluted with the nutrient medium RPMI-1640 so that the final concentrations of the compounds which were obtained after introduction of lymphocyte suspension, constituted the raw: 100 μg/ml, 10 μg/ml, 1 μg/ml. The final concentration of lymphocytes in the induction mixture was 3×10^6 cell/ml.
Control and test samples were incubated for 24 hours at the temperature of 37° C. After incubation, the samples were centrifuged at 2,000 G to deposit cell elements, and IFN-containing supernatant was separate out of the samples; then the supernatant was analyzed for the quantitative content of IFN. Cell deposition was resuspended in the preceding volume of nutrient medium, colored with vital dye trypan blue, and cell number was counted in a chamber of a hemocytometer (as described above) to determine cytotoxic effect of the compounds.
Quantitative determination of the content of IFN in control and test samples was conducted using the immunoenzyme test system Pro Con IF2 Plus, that is intended for determination of IFN-α, which is produced by TOO <<Protein contour>>. The solid-phase immunoenzyme method, utilizing horse radish peroxidase as an indicator enzyme, was used to determine the quantity of interferon in the samples. Activity of the bonded peroxidase was measured using an automatic photometer for microplates with a microprocessor at the wavelength of 450 nm.
Based on the obtained results, a calibrating curve was formed, which allows to obtain data expressed in international units (IU) of activity, using the microprocessor of the automatic photometer. The results of the analysis are expressed in IU of activity of IFN per ml in the given induction system, which contains 3×10^6 lymphocyte/ml. Each test and control point was investigated in four parallels.
The obtained data were undergone a statistical analysis using t-criterion, and calculation of the confident interval of probability at p=0.05 was carried out. Coincidence between the results obtained in the parallel tests was analyzed.

mice [5] = test: Psychodepressant activity (behavioral depression score); assay type: in vivo; conditions: one hour after per oral 300 mg/kg; total 60 points, less than 40 = significant behavioral depression; 3 mice
Description: Each parameter scores 2 points for an each mouse that had unchanged behavior. The total point sum was 60 (2×10×3 mice). Reducing score to less than 40 one hour after dosing with a substance per oral (300 mg/kg) denoted significant behavioral depression. Haloperidol was utilized as a reference agent.

rats = test: Hepatoprotective activity (CCl4 liver damage, AlAT); assay type: in vivo
Description: CCl4 dissolved in 50% olive oil (1 ml/kg) was subcutaneously administrated to rats. Test substances were administrated perorally in a dose of 20 mg/kg 30 minutes before and 7 hours after the CCL4 administration. The activity of alanine-aminotranspherase (AlAT), which is a marker enzyme of liver parenchyma damage, was assessed twenty-four hours later. Reducing of enzyme amount by more than 30% relative to the control group was considered as evidence of hepatoprotective properties of the substance. Vitamin E in a dose of 100 mg/kg was used as a reference agent.

[6] = Mycobacterium tuberculosis, H37RV, read-out: MIC
[7] = compound 100 μg/ml, 36 hours of incubation

## [H]/N=C(/N)N[C@H]1[C@H](O)[C@@H](O)[C@H](O[C@@H]2O[C@@H](C)[C@](O)(C=O)[C@H]2O[C@@H]2O[C@@H](CO)[C@H](O)[C@@H](O)[C@@H]2NC)[C@@H](N/C(N)=N\[H])[C@@H]1O [Streptomycin]
[1]; [6]
  MIC: 0.2 µg/mL (≈ 0.344 µM)

## CC[C@@H](CO)NCCN[C@@H](CC)CO [Ethambutol]
[1]; [6]
  MIC: 5 µg/mL (≈ 24.5 µM)

## O=c1[nH]cc(N=Cc2cc(Br)cc(Br)c2O)c(=O)[nH]1 [XIII, 2,4-dioxo-5-(2-hydroxy-3,5-dibromobenzylidene) imino-1,3-pyrimidine]
[2]; [7]
  % of protection: 80%
  Quantity of the unchanged cells: 8000
no-breed white mice
  Maximal tolerable dose: Concentration of tested compounds (mg/l) at oral introducing: 300 mg/L

## O=c1[nH]cc(N=Cc2cc(I)cc(I)c2O)c(=O)[nH]1 [XXIV, 2,4-dioxo-5-(2-hydroxy-3,5-diiodobenzylidene) imino-1,3-pyrimidine]
[1]
  MIC: 100 µg/mL (≈ 207 µM)
no-breed white mice
  Maximal tolerable dose: Concentration of tested compounds (mg/l) at oral introducing: 300 mg/L

## CC1COc2c(N3CCN(C)CC3)c(F)cc3c(=O)c(C(=O)O)cn1c23 (stereo not drawn) [Ofloxacin]
[1]; [6]
  MIC: 0.5 µg/mL (≈ 1.38 µM)

## Cc1c(N(C)CS(=O)(=O)[O-])c(=O)n(-c2ccccc2)n1C.[Na+] [Analginum, reference compound]
Mice [3]; Analginum 2 mg/kg, reference agent
  Prolongation of the latent period of response (%): 86%

## O=c1[nH]cc(N=Cc2ccccc2[N+](=O)[O-])c(=O)[nH]1 [XVIII, 2,4-dioxo-5-(2-nitrobenzylidene) imino-1,3-pyrimidine]
[1]
  MIC: 100 µg/mL (≈ 384 µM)
no-breed white mice
  Maximal tolerable dose: Concentration of tested compounds (mg/l) at oral introducing: 300 mg/L

## O=c1[nH]cc(N=Cc2ccc(Cl)cc2Cl)c(=O)[nH]1 [XI, 2,4-dioxo-5-(2,4-dichlorobenzylidene) imino-1,3-pyrimidine]
C.trachomatis D323
  percentage of cell protection from infection: 55%
  Number of unchanged cells: 7.700
  activity against chlamydia (in words): marked activity against chlamydia
no-breed white mice
  Maximal tolerable dose: Concentration of tested compounds (mg/l) at oral introducing: 300 mg/L

## COc1cc(C=Nc2c[nH]c(=O)[nH]c2=O)ccc1O [XV, 2,4-dioxo-5-(4-hydroxy-3-methoxybenzylidene) imino-1,3-pyrimidine]
[4]; substance 1 mg/l
  Content of IFN in induction mixture after 24-hour incubation: 4,5 ± 1,6 IU/3 × 10^4 lymph./ml
[4]; substance 10 mg/l
  Content of IFN in induction mixture after 24-hour incubation: 54,2 ± 1,8 IU/3 × 10^4 lymph./ml
[4]; substance 100 mg/l
  Content of IFN in induction mixture after 24-hour incubation: 105 ± 2 IU/3 × 10^4 lymph./ml
no-breed white mice
  Maximal tolerable dose: Concentration of tested compounds (mg/l) at oral introducing: 300 mg/L

## Rifampycin
[1]
  MIC: 0.05 µg/mL

## O=c1[nH]cc(N=Cc2ccccc2Cl)c(=O)[nH]1 [IV, 2,4-dioxo-5-(2-chlorobenzylidene) imino-1,3-pyrimidine]
[4]; substance 1 mg/l
  Content of IFN in induction mixture after 24-hour incubation: 15,2 ± 0,3 IU/3 × 10^4 lymph./ml
[4]; substance 10 mg/l
  Content of IFN in induction mixture after 24-hour incubation: 62,5 ± 1,3 IU/3 × 10^4 lymph./ml
[4]; substance 100 mg/l
  Content of IFN in induction mixture after 24-hour incubation: 123,6 ± 0,5 IU/3 × 10^4 lymph./ml
no-breed white mice
  Maximal tolerable dose: Concentration of tested compounds (mg/l) at oral introducing: 300 mg/L

## Nc1nc2c(ncn2COCCO)c(=O)[nH]1 [Acyclovir, reference compound]
[2]; Acyclovir 30 μg/ml
  % of protection: 80%
  Quantity of the unchanged cells: 8000

## O=c1[nH]cc(N=Cc2cc([N+](=O)[O-])ccc2O)c(=O)[nH]1 [XIX, 2,4-dioxo-5-(2-hydroxy-5-nitrobenzylidene) imino-1,3-pyrimidine]
[2]; [7]
  % of protection: 80%
  Quantity of the unchanged cells: 8000
no-breed white mice
  Maximal tolerable dose: Concentration of tested compounds (mg/l) at oral introducing: 300 mg/L

## CN(C)c1ccc(C=Nc2c[nH]c(=O)[nH]c2=O)cc1 [XXV, 2,4-dioxo-5-(4-dimethylamino-benzylidene) imino-1,3-pyrimidine]
C.trachomatis D323
  percentage of cell protection from infection: 55%
  Number of unchanged cells: 7.700
  activity against chlamydia (in words): marked activity against chlamydia
no-breed white mice
  Maximal tolerable dose: Concentration of tested compounds (mg/l) at oral introducing: 300 mg/L

## O=C(CCCN1CCC(O)(c2ccc(Cl)cc2)CC1)c1ccc(F)cc1 [Haloperidol, reference compound]
Mice [5]
  Point number: 27

## O=c1[nH]cc(N=Cc2cc(Br)ccc2O)c(=O)[nH]1 [VIII, 2,4-dioxo-5-(2-hydroxy-5-bromobenzylidene) imino-1,3-pyrimidine]
[1]
  MIC: 100 µg/mL (≈ 322 µM)
no-breed white mice
  Maximal tolerable dose: Concentration of tested compounds (mg/l) at oral introducing: 300 mg/L

## Vitamin E [reference compound]
rats; Vitamin E 100 mg/kg, reference agent
  % of reducing AIAT: −30%

## NNC(=O)c1ccncc1 [Isoniazid]
[1]; [6]
  MIC: 0.1 µg/mL (≈ 0.729 µM)

## O=c1[nH]cc(N=Cc2cc(Cl)cc(Cl)c2O)c(=O)[nH]1 [XII, 2,4-dioxo-5-(2-hydroxy-3,5-dichlorobenzylidene) imino-1,3-pyrimidine]
[2]; [7]
  % of protection: 90%
  Quantity of the unchanged cells: 9000
Mice [3]; intraperitoneal 30 mg/kg, more than 50% = analgesic activity
  Prolongation of the latent period of response (%): 96%
rats; perorally 20 mg/kg 30 minutes before and 7 hours after CCl4, assessed 24 hours later, relative to control group
  % of reducing AIAT: −48%
[1]
  MIC: 100 µg/mL (≈ 333 µM)
Mice [5]
  Point number: 35
no-breed white mice
  Maximal tolerable dose: Concentration of tested compounds (mg/l) at oral introducing: 300 mg/L
